In ChEMBL document CHEMBL3885881, “DrugMatrix”:

Organism: Rattus norvegicus
Assay: DrugMatrix - Regimen: Daily Repeat
Type: toxicity, organism-based, Sprague-Dawley
Parameters: regimen Daily Repeat, gender Male, age 6-8 weeks
Settings: in vivo, po, 800 mg/kg, route oral GAVAGE, dose level High, vehicle .5 % CMC; for BASOPHIL / EOSINOPHIL / ERYTHROCYTE COUNT / HEMATOCRIT / HEMOGLOBIN / LEUKOCYTE COUNT / LYMPHOCYTE / MEAN CORPUSCULAR HEMOGLOBIN / MEAN CORPUSCULAR HEMOGLOBIN CONCENTRATION / MEAN CORPUSCULAR VOLUME / MONOCYTE / NEUTROPHIL / PLATELET COUNT: tissue Blood; for ALANINE AMINOTRANSFERASE / ALBUMIN / ALKALINE PHOSPHATASE / ASPARTATE AMINOTRANSFERASE / BLOOD UREA NITROGEN / CARBON DIOXIDE / CHLORIDE / CHOLESTEROL / CREATINE PHOSPHOKINASE / CREATININE / GLUCOSE / LACTATE DEHYDROGENASE / LIPASE / PHOSPHORUS / POTASSIUM / SODIUM / TOTAL BILIRUBIN / TOTAL PROTEIN / URIC ACID: tissue Plasma

Oc1ccc(O)cc1 [HYDROQUINONE]
BASOPHIL (72 h, time 3 day): 0.25% | EOSINOPHIL (72 h, time 3 day): 0.45% | ERYTHROCYTE COUNT (72 h, time 3 day): 6.72 x10E6/uL | HEMATOCRIT (72 h, time 3 day): 44.05% | HEMOGLOBIN (72 h, time 3 day): 14.5 G/DL | LEUKOCYTE COUNT (72 h, time 3 day): 7.7 x10E3/uL | LYMPHOCYTE (72 h, time 3 day): 89.1% | MEAN CORPUSCULAR HEMOGLOBIN (72 h, time 3 day): 21.6 pg | MEAN CORPUSCULAR HEMOGLOBIN CONCENTRATION (72 h, time 3 day): 32.9 G/DL | MEAN CORPUSCULAR VOLUME (72 h, time 3 day): 65.5 fL | MONOCYTE (72 h, time 3 day): 1.5% | NEUTROPHIL (72 h, time 3 day): 7.45% | PLATELET COUNT (72 h, time 3 day): 1149.5 x10E3/uL | ALANINE AMINOTRANSFERASE (72 h, time 3 day): 48 u/L | ALBUMIN (72 h, time 3 day): 4.2 G/DL | ALKALINE PHOSPHATASE (72 h, time 3 day): 309.5 u/L | ASPARTATE AMINOTRANSFERASE (72 h, time 3 day): 52 u/L | BLOOD UREA NITROGEN (72 h, time 3 day): 15.5 mg/dL | CARBON DIOXIDE (72 h, time 3 day): 23 mmol/L | CHLORIDE (72 h, time 3 day): 107.5 MEQ/L | CHOLESTEROL (72 h, time 3 day): 80.5 mg/dL | CREATINE PHOSPHOKINASE (72 h, time 3 day): 183 u/L | CREATININE (72 h, time 3 day): 0.45 mg/dL | GLUCOSE (72 h, time 3 day): 164 mg/dL | LACTATE DEHYDROGENASE (72 h, time 3 day): 102 u/L | LIPASE (72 h, time 3 day): 23.5 u/L | PHOSPHORUS (72 h, time 3 day): 13.75 mg/dL | POTASSIUM (72 h, time 3 day): 6.4 MEQ/L | SODIUM (72 h, time 3 day): 150 MEQ/L | TOTAL BILIRUBIN (72 h, time 3 day): 0.3 mg/dL | TOTAL PROTEIN (72 h, time 3 day): 6.5 G/DL | URIC ACID (72 h, time 3 day): 2.25 mg/dL | BASOPHIL (120 h, time 5 day): 0.2% | EOSINOPHIL (120 h, time 5 day): 0.3% | ERYTHROCYTE COUNT (120 h, time 5 day): 6.45 x10E6/uL | HEMATOCRIT (120 h, time 5 day): 41.5% | HEMOGLOBIN (120 h, time 5 day): 13.7 G/DL | LEUKOCYTE COUNT (120 h, time 5 day): 10.53 x10E3/uL | LYMPHOCYTE (120 h, time 5 day): 89% | MEAN CORPUSCULAR HEMOGLOBIN (120 h, time 5 day): 21.3 pg | MEAN CORPUSCULAR HEMOGLOBIN CONCENTRATION (120 h, time 5 day): 33.1 G/DL | MEAN CORPUSCULAR VOLUME (120 h, time 5 day): 64.4 fL | MONOCYTE (120 h, time 5 day): 1.6% | NEUTROPHIL (120 h, time 5 day): 6.2% | PLATELET COUNT (120 h, time 5 day): 1513 x10E3/uL | ALANINE AMINOTRANSFERASE (120 h, time 5 day): 36.5 u/L | ALBUMIN (120 h, time 5 day): 4.2 G/DL | ALKALINE PHOSPHATASE (120 h, time 5 day): 411 u/L | ASPARTATE AMINOTRANSFERASE (120 h, time 5 day): 55 u/L | BLOOD UREA NITROGEN (120 h, time 5 day): 15.5 mg/dL | CARBON DIOXIDE (120 h, time 5 day): 27 mmol/L | CHLORIDE (120 h, time 5 day): 105 MEQ/L | CHOLESTEROL (120 h, time 5 day): 70.5 mg/dL | CREATINE PHOSPHOKINASE (120 h, time 5 day): 206 u/L | CREATININE (120 h, time 5 day): 0.25 mg/dL | GLUCOSE (120 h, time 5 day): 163 mg/dL | LACTATE DEHYDROGENASE (120 h, time 5 day): 87.5 u/L | LIPASE (120 h, time 5 day): 20 u/L | PHOSPHORUS (120 h, time 5 day): 12.6 mg/dL | POTASSIUM (120 h, time 5 day): 6.1 MEQ/L | SODIUM (120 h, time 5 day): 148 MEQ/L | TOTAL BILIRUBIN (120 h, time 5 day): 0.55 mg/dL | TOTAL PROTEIN (120 h, time 5 day): 6.5 G/DL | URIC ACID (120 h, time 5 day): 2.05 mg/dL | BASOPHIL ([…], time 14 day): 0.8% | EOSINOPHIL ([…], time 14 day): 0.2% | ERYTHROCYTE COUNT ([…], time 14 day): 6.87 x10E6/uL | HEMATOCRIT ([…], time 14 day): 42.85% | HEMOGLOBIN ([…], time 14 day): 14.03 G/DL | LEUKOCYTE COUNT ([…], time 14 day): 14.3 x10E3/uL | LYMPHOCYTE ([…], time 14 day): 83.92% | MEAN CORPUSCULAR HEMOGLOBIN ([…], time 14 day): 20.45 pg | MEAN CORPUSCULAR HEMOGLOBIN CONCENTRATION ([…], time 14 day): 32.83 G/DL | MEAN CORPUSCULAR VOLUME ([…], time 14 day): 62.4 fL | MONOCYTE ([…], time 14 day): 1.9% | NEUTROPHIL ([…], time 14 day): 11.55% | PLATELET COUNT ([…], time 14 day): 1262 x10E3/uL | ALANINE AMINOTRANSFERASE ([…], time 14 day): 50 u/L | ALBUMIN ([…], time 14 day): 4.45 G/DL | ALKALINE PHOSPHATASE ([…], time 14 day): 349.75 u/L | ASPARTATE AMINOTRANSFERASE ([…], time 14 day): 70.25 u/L | BLOOD UREA NITROGEN ([…], time 14 day): 16.25 mg/dL | CARBON DIOXIDE ([…], time 14 day): 30.25 mmol/L | CHLORIDE ([…], time 14 day): 103.5 MEQ/L | CHOLESTEROL ([…], time 14 day): 84.5 mg/dL | CREATINE PHOSPHOKINASE ([…], time 14 day): 254.25 u/L | CREATININE ([…], time 14 day): 0.4 mg/dL | GLUCOSE ([…], time 14 day): 161.5 mg/dL | LACTATE DEHYDROGENASE ([…], time 14 day): 60.75 u/L | LIPASE ([…], time 14 day): 17.25 u/L | PHOSPHORUS ([…], time 14 day): 12.07 mg/dL | POTASSIUM ([…], time 14 day): 6.7 MEQ/L | SODIUM ([…], time 14 day): 150.25 MEQ/L | TOTAL BILIRUBIN ([…], time 14 day): 0.55 mg/dL | TOTAL PROTEIN ([…], time 14 day): 6.97 G/DL | URIC ACID ([…], time 14 day): 1 mg/dL
